Results as given in ChEMBL document CHEMBL1201862, “PubChem BioAssay data set” (2004).
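Briefly, cells in 96-well plates were exposed to five compound concentrations for 48 h, and endpoints were estimated by linear interpolation. GI50: concentration for 50% inhibition of growth.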 Active and inactive are the calls of the source. No stated cut-off is given here; in the data, active = GI50 up to about 1.1 µM and inactive = higher.

How the values were obtained:
Assay in all cases: NCI anticancer screen, dose series, 48 h
[1] = system: SN12C
[2] = system: A549
[3] = system: M14
[4] = system: HOP-62
[5] = system: DMS-114
[6] = system: EKVX
[7] = system: UACC-62
[8] = system: IGROV-1
[9] = system: COLO 205
[10] = system: OVCAR-8
[11] = system: HT-29
[12] = system: SW-620
[13] = system: HCC 2998
[14] = system: SNB-19
[15] = system: LOX IMVI
[16] = system: HCT-15
[17] = system: ACHN
[18] = system: HCT-116
[19] = system: HOP-18
[20] = system: UACC-257
[21] = system: SK-OV-3
[22] = system: SF-268
[23] = system: SK-MEL-5
[24] = system: MOLT-4
[25] = system: SF-539
[26] = system: OVCAR-5
[27] = system: NCI-H23
[28] = system: CAKI-1
[29] = system: Malme-3M
[30] = system: RPMI-8226
[31] = system: LXFL 529
[32] = system: RXF 393
[33] = system: U-251
[34] = system: SR
[35] = system: UO-31
[36] = system: SF-295
[37] = system: DLD-1
[38] = system: HOP-92
[39] = system: NCI-H226
[40] = system: NCI-H460
[41] = system: TK-10
[42] = system: M19-MEL
[43] = system: 786-0
[44] = system: KM12
[45] = system: OVCAR-4
[46] = system: DMS-273
[47] = system: KM-20L2
[48] = system: OVCAR-3
[49] = system: SNB-78
[50] = system: A498
[51] = system: SK-MEL-28
[52] = system: SNB-75
[53] = system: K562
[54] = system: NCI-H522
[55] = system: CCRF-CEM
[56] = system: SK-MEL-2

Measured: GI50

Cn1cnc([N+](=O)[O-])c1Sc1nc2cc(Cl)c(F)cc2[nH]1
inactive: [1] 14.1 µM | [2] 15.3 µM | [3] 13.5 µM | [4] 74.5 µM | [5] 6.35 µM | [6] 1.38 µM | [7] 14 µM | [8] 7.66 µM | [9] 6.43 µM | [10] 3.75 µM | [11] 14.9 µM | [12] 5.73 µM | [13] 7.6 µM | [14] 26.4 µM | [15] 16.1 µM | [17] 12.9 µM | [18] 6.9 µM | [19] 7.8 µM | [20] 11.6 µM | [21] 21.5 µM | [22] 10.1 µM | [23] 11.7 µM | [24] 2.08 µM | [25] 4.32 µM | [26] 16.8 µM | [27] 11.5 µM | [28] 2.58 µM | [29] 13.7 µM | [30] 7.24 µM | [31] 5.7 µM | [32] 3.69 µM | [33] 8.41 µM | [34] 1.75 µM | [35] 11.3 µM | [36] 48.4 µM | [37] 7.67 µM | [38] 13.8 µM | [39] 9.55 µM | [40] 10.3 µM | [41] 14.5 µM | [42] 11.7 µM | [43] > 10 µM | [44] 15 µM | [45] 4.34 µM | [46] 3.54 µM | [47] 11.4 µM | [48] > 10 µM | [49] 2.43 µM | [50] 18.6 µM | [51] 13.5 µM | [52] 13.8 µM
4.37 µM: [16]

c1ccc2cc(C3NCCc4nc[nH]c43)ccc2c1 (stereo not given)
inactive: [1] 97.5 µM | [2] > 100 µM | [3] 39.9 µM | [4] > 100 µM | [5] 35.6 µM | [7] 55.7 µM | [8] > 100 µM | [9] 24.9 µM | [53] 29.6 µM | [10] 89.7 µM | [11] 41.7 µM | [12] 61.8 µM | [13] 59.6 µM | [15] 71.6 µM | [17] 23.5 µM | [18] 67.3 µM | [19] 47 µM | [20] 26.7 µM | [54] 34 µM | [21] > 100 µM | [55] 35.6 µM | [22] > 100 µM | [23] 19.1 µM | [24] 25.1 µM | [25] 89.1 µM | [26] > 100 µM | [27] > 100 µM | [28] 60.3 µM | [30] 45.5 µM | [56] 72.8 µM | [31] 54.2 µM | [32] 61.1 µM | [33] 90.8 µM | [34] 54.2 µM | [35] 35.8 µM | [36] 68.5 µM | [37] 62.2 µM | [38] 49.3 µM | [39] > 100 µM | [40] 52 µM | [41] 28 µM | [42] 29.9 µM | [43] 41.3 µM | [44] 17.3 µM | [45] 57 µM | [46] 69.2 µM | [47] 42.7 µM | [48] 61.2 µM | [49] > 100 µM | [50] 25.9 µM | [51] > 100 µM | [52] 46.2 µM
42.6 µM: [16]
